“And” between values parts separate entries of the source, which are not always exact repeats. Equal entries are not always repeated.
Conditions: transient hot wire

O=C(C(F)(F)C(F)(F)F)C(F)(C(F)(F)F)C(F)(F)F [dodecafluoro-2-methylpentan-3-one]
Conditions | thermal conductivity
417.43 K, 35735 kPa, Liquid | 0.06006 W/m/K
417.44 K, 35746 kPa, Liquid | 0.06008 W/m/K
417.45 K, 995 kPa, Gas | 0.022 W/m/K
417.46 K, 24856 kPa, Liquid | 0.05553 W/m/K
417.46 K, 24868 kPa, Liquid | 0.05553 W/m/K
417.48 K, 3782 kPa, Liquid | 0.04235 W/m/K
417.49 K, 3785 kPa, Liquid | 0.04236 W/m/K
417.5 K, 788 kPa, Gas | 0.02105 W/m/K and 0.02104 W/m/K
417.52 K, 10593 kPa, Liquid | 0.04792 W/m/K
417.52 K, 10594 kPa, Liquid | 0.04785 W/m/K
417.53 K, 2204 kPa, Liquid | 0.04067 W/m/K
417.53 K, 2206 kPa, Liquid | 0.04059 W/m/K
417.56 K, 372 kPa, Gas | 0.02094 W/m/K
417.59 K, 16285 kPa, Liquid | 0.05128 W/m/K
417.59 K, 35671 kPa, Liquid | 0.06014 W/m/K
417.59 K, 35701 kPa, Liquid | 0.06019 W/m/K
417.6 K, 591 kPa, Gas | 0.02077 W/m/K
417.6 K, 1024 kPa, Gas | 0.0225 W/m/K
417.6 K, 16284 kPa, Liquid | 0.05126 W/m/K
417.61 K, 594 kPa, Gas | 0.02078 W/m/K
417.61 K, 6424 kPa, Liquid | 0.04484 W/m/K
417.62 K, 6421 kPa, Liquid | 0.0448 W/m/K
417.65 K, 994 kPa, Gas | 0.02218 W/m/K
417.66 K, 995 kPa, Gas | 0.02218 W/m/K
417.68 K, 785 kPa, Gas | 0.02107 W/m/K
417.7 K, 788 kPa, Gas | 0.02117 W/m/K
417.7 K, 3782 kPa, Liquid | 0.04218 W/m/K and 0.04238 W/m/K
417.71 K, 10585 kPa, Liquid | 0.04785 W/m/K
417.73 K, 10592 kPa, Liquid | 0.04786 W/m/K
417.76 K, 371 kPa, Gas | 0.02099 W/m/K
417.76 K, 372 kPa, Gas | 0.0209 W/m/K
417.82 K, 589 kPa, Gas | 0.02086 W/m/K
417.82 K, 6421 kPa, Liquid | 0.0448 W/m/K
417.84 K, 994 kPa, Gas | 0.02265 W/m/K
417.84 K, 6421 kPa, Liquid | 0.04481 W/m/K
417.85 K, 994 kPa, Gas | 0.02241 W/m/K
417.88 K, 785 kPa, Gas | 0.02124 W/m/K
417.93 K, 3782 kPa, Liquid | 0.04241 W/m/K
417.93 K, 3784 kPa, Liquid | 0.04244 W/m/K
417.95 K, 369 kPa, Gas | 0.02101 W/m/K
417.95 K, 370 kPa, Gas | 0.02093 W/m/K
418.05 K, 588 kPa, Gas | 0.02096 W/m/K
418.08 K, 784 kPa, Gas | 0.02089 W/m/K
418.16 K, 367 kPa, Gas | 0.02097 W/m/K
418.16 K, 369 kPa, Gas | 0.02096 W/m/K
418.29 K, 587 kPa, Gas | 0.02094 W/m/K
418.3 K, 587 kPa, Gas | 0.02092 W/m/K
418.46 K, 367 kPa, Gas | 0.02103 W/m/K
418.47 K, 366 kPa, Gas | 0.02102 W/m/K
432.13 K, 1545 kPa, Gas | 0.02726 W/m/K
432.18 K, 1546 kPa, Gas | 0.02748 W/m/K
432.2 K, 1545 kPa, Gas | 0.02732 W/m/K
432.24 K, 1546 kPa, Gas | 0.02788 W/m/K
432.25 K, 1546 kPa, Gas | 0.02765 W/m/K
432.26 K, 1546 kPa, Gas | 0.0279 W/m/K
432.38 K, 2634 kPa, Liquid | 0.03887 W/m/K
432.38 K, 2635 kPa, Liquid | 0.0388 W/m/K
432.42 K, 1424 kPa, Gas | 0.02465 W/m/K
432.43 K, 1423 kPa, Gas | 0.02466 W/m/K
432.46 K, 1706 kPa, Liquid | 0.03696 W/m/K
432.46 K, 1978 kPa, Liquid | 0.03766 W/m/K
432.47 K, 1706 kPa, Liquid | 0.03707 W/m/K
432.47 K, 1710 kPa, Liquid | 0.03705 W/m/K
432.47 K, 1979 kPa, Liquid | 0.03775 W/m/K
432.52 K, 1423 kPa, Gas | 0.0248 W/m/K
432.52 K, 2633 kPa, Liquid | 0.03885 W/m/K
432.53 K, 1423 kPa, Gas | 0.02469 W/m/K
432.53 K, 2633 kPa, Liquid | 0.03887 W/m/K
432.54 K, 1420 kPa, Gas | 0.02444 W/m/K
432.55 K, 1420 kPa, Gas | 0.0244 W/m/K
432.56 K, 1978 kPa, Liquid | 0.03769 W/m/K
432.57 K, 1705 kPa, Liquid | 0.03737 W/m/K and 0.03712 W/m/K
432.57 K, 1979 kPa, Liquid | 0.0379 W/m/K
432.62 K, 1709 kPa, Liquid | 0.03738 W/m/K
432.63 K, 1422 kPa, Gas | 0.02518 W/m/K
432.63 K, 1709 kPa, Liquid | 0.0377 W/m/K
432.65 K, 1419 kPa, Gas | 0.02476 W/m/K and 0.02477 W/m/K
432.67 K, 1705 kPa, Liquid | 0.03805 W/m/K
432.68 K, 1705 kPa, Liquid | 0.0373 W/m/K
432.68 K, 1977 kPa, Liquid | 0.03782 W/m/K
432.68 K, 1978 kPa, Liquid | 0.03794 W/m/K
432.68 K, 2631 kPa, Liquid | 0.03893 W/m/K
432.68 K, 2632 kPa, Liquid | 0.03891 W/m/K
432.69 K, 3940 kPa, Liquid | 0.04069 W/m/K and 0.04067 W/m/K
